Test results reported in the OligoGym collection.
Where “and” joins values, the source holds several entries; their conditions need not be identical. Equal entries are not always repeated. After the bases stand the sugars from the 5' end (letter, count) and the backbone: PS all phosphorothioate, else s phosphorothioate and o phosphodiester by linkage. Methylation of C is not given here. e = 2'-O-(2-methoxyethyl) (MOE); k = constrained ethyl (cEt); d = 2'-deoxy (DNA)

Target: APOL1
Conditions: ASO

Sequence | target mRNA inhibition (A431, 0.0156 µM) [%] | target mRNA inhibition (A431, 0.0625 µM) | target mRNA inhibition (A431, 0.25 µM) | target mRNA inhibition (A431, 1 µM) | target mRNA inhibition (A431, 2 µM) [%] | target mRNA inhibition (A431, 0.04 µM) [%]
GTTCTAACTCTTGGGC (sugars k2 d4 e3 k2 d5, PS) | 20 | 35% | 65% | 85% | 91 | 
CTGAAGATTGGCTCTG (sugars k2 d4 e3 k2 d5, PS) |  |  |  |  | 54 | 
CAGTTTTGTAAGTGCA (sugars kekddddeekkddddd, PS) | 39 | 73% | 92% | 96% | 96 | 
GTTATATTTGATCCTC (sugars kkddddekekeddddd, PS) | 8 | 37% | 69% | 64% | 96 | 
AAGATTGGCTCTGGCT (sugars kkddddkekekkdddd, PS) |  |  |  |  | 2 | 
ATTCTCATGGTACAGG (sugars kekddddeekkddddd, PS) | 0 | 37% | 76% | 90% | 96 | 
GTATTTCTTGATGTGG (sugars kddddkekekeddddd, PS) |  |  |  |  | 87 | 
GTTCTAACTCTTGGGC (sugars kkddddkekekkdddd, PS) |  |  |  |  | 52 | 
ACTTTATACCAGTGTC (sugars k2 d4 e3 k2 d5, PS) |  |  |  |  | 91 | 
ATTTCTTGATGTGGTG (sugars k4 d9 k3, PS) |  | 95% | 99% | 99% |  | 
GAAGATTGGCTCTGGC (sugars kkkddddkdkdkdddd, PS) |  |  |  |  | 51 | 
TGTTATATTTGATCCT (sugars kkddddkekekddddd, PS) |  |  |  |  | 81 | 
TAATTCTATTAGAGGG (sugars kkddddkekekddddd, PS) |  |  |  |  | 34 | 
GTTATATTTGATCCTC (sugars k2 d4 e3 k2 d5, PS) | 2 | 31% | 67% | 89% | 93 | 
TGAGTATTGTTTTTGT (sugars k2 d4 e3 k2 d5, PS) |  |  |  |  | 87 | 
CATTCAGAATTTCCAC (sugars kkddddkekekkdddd, PS) |  |  |  |  | 57 | 
CTAATTTTCTGACTGT (sugars kkdddddkekeddddd, PS) | 27 | 56% | 80% | 93% | 98 | 
TTCTATTAGAGGGCTA (sugars kkkddddkekeddddd, PS) |  |  |  |  | 91 | 
ATCAGATGGGTACTTC (sugars kkddddekekeddddd, PS) |  |  |  |  | 73 | 
ACACATCATTGGGTTA (sugars kkkddddkekeddddd, PS) |  |  |  |  | 58 | 
GAGTATTGTTTTTGTG (sugars kkkddddkekekdddd, PS) |  |  |  |  | 56 | 
AGGTTGTCCAGAGCTT (sugars k4 d9 k3, PS) |  | 51% | 60% | 69% |  | 
GCTTTAAACTCAGGTG (sugars k2 d4 e3 k2 d5, PS) |  |  |  |  | 91 | 
TGAAGATTGGCTCTGG (sugars k2 d4 e3 k2 d5, PS) |  |  |  |  | 82 | 
TTATGAAATTATTGGT (sugars kkddddkekekddddd, PS) |  |  |  |  | 82 | 

Sequence | target mRNA inhibition (A431, 0.0156 µM) [%] | target mRNA inhibition (A431, 0.0625 µM) | target mRNA inhibition (A431, 0.25 µM) | target mRNA inhibition (A431, 1 µM) | target mRNA inhibition (A431, 2 µM) [%] | target mRNA inhibition (A431, 0.04 µM) [%]
TCAGATGGGTACTTCT (sugars kkdddddkekeddddd, PS) |  |  |  |  | 89 | 
GTAAGTATTGCCAGCT (sugars k2 d4 e3 k2 d5, PS) |  |  |  |  | 89 | 
TCAGATGGGTACTTCT (sugars k3 d4 k3 e1 d5, PS) |  |  |  |  | 82 | 
AGCATCAAAAACCTGG (sugars k4 d9 k3, PS) |  | 66% | 81% | 89% |  | 
ATATCAGATGGGTACT (sugars kkddddkekekddddd, PS) |  |  |  |  | 21 | 
ATTCTCATGGTACAGG (sugars kddddkekekeddddd, PS) |  |  |  |  | 51 | 
CATTCAGAATTTCCAC (sugars kkddddekekeddddd, PS) |  |  |  |  | 87 | 
ATGAACGCAATGCTGA (sugars k4 d9 k3, PS) |  | 52% | 76% | 92% |  | 
ATTCTCATGGTACAGG (sugars k4 d9 k3, PS) | 24 | 49% and 50% | 83% and 84% | 94% and 93% |  | 
AAGTATTGCCAGCTAA (sugars k3 d4 k3 e1 d5, PS) |  |  |  |  | 49 | 
TTATATTTGATCCTCA (sugars k2 d4 e4 k2 d4, PS) | 0 | 30% | 61% | 87% | 91 | 
GCTAATTTTCTGACTG (sugars kkkddddkekekdddd, PS) |  |  |  |  | 88 | 
TCATTTGCTAGGTGCC (sugars k4 d9 k3, PS) |  | 43% | 72% | 85% |  | 
GCTAAGTTCCGGTCTC (sugars k4 d9 k3, PS) |  | 50% | 74% | 85% |  | 
TTTAAACTCAGGTGAC (sugars kkddddkekekkdddd, PS) |  |  |  |  | 16 | 
GTTATATTTGATCCTC (sugars kddddkekekeddddd, PS) |  |  |  |  | 60 | 
CTTTATACCAGTGTCT (sugars kkdddddkekeddddd, PS) | 14 | 41% | 74% | 92% | 97 | 
ATTTCTTGATGTGGTG (sugars kdddddkekekddddd, PS) | 22 | 50% | 80% | 91% | 96 | 
TGGGAATTATGGAATT (sugars kkkddddkekekdddd, PS) |  |  |  |  | 56 | 
GTTATGAAATTATTGG (sugars kddddkekekeddddd, PS) |  |  |  |  | 77 | 
TGAAGATTGGCTCTGG (sugars kkkddddkekeddddd, PS) |  |  |  |  | 54 | 
GTTATGAAATTATTGG (sugars kekddddeekkddddd, PS) | 14 | 43% | 64% | 84% | 90 | 
GCTAATTTTCTGACTG (sugars kkdddddkekeddddd, PS) | 11 | 47% | 82% | 94% | 99 | 
ATTCTCATGGTACAGG (sugars kkddddekekeddddd, PS) | 40 | 41% | 71% | 90% | 95 | 
TTTTGTTGCACCCTTG (sugars k4 d9 k3, PS) |  | 76% | 87% | 92% |  | 

Sequence | target mRNA inhibition (A431, 0.0156 µM) [%] | target mRNA inhibition (A431, 0.0625 µM) | target mRNA inhibition (A431, 0.25 µM) | target mRNA inhibition (A431, 1 µM) | target mRNA inhibition (A431, 2 µM) [%] | target mRNA inhibition (A431, 0.04 µM) [%]
CTTATGCTTACTCCAC (sugars k4 d9 k3, PS) |  | 64% | 75% | 90% |  | 
GAAGATTGGCTCTGGC (sugars kkkddddkekekdddd, PS) |  |  |  |  | 16 | 
TTGTCTTGCAAGGTTG (sugars k4 d9 k3, PS) |  | 55% | 69% | 85% |  | 
GAATTATGGAATTGCA (sugars kkddddkdkdkddddd, PS) |  |  |  |  | 82 | 
GTTCTAACTCTTGGGC (sugars kkddddekekeddddd, PS) |  |  |  |  | 78 | 
GTGTTATATTTGATCC (sugars kkkddddkekeddddd, PS) | 24 | 66% | 89% | 95% | 96 | 50
GGTTATGAAATTATTG (sugars k2 d4 e3 k2 d5, PS) |  |  |  |  | 61 | 
CGTCAATATATTCTTT (sugars kkkddddkekekdddd, PS) | 25 | 55% | 84% | 93% | 94 | 
CAGCATTGAGTACAAC (sugars k3 d10 k3, PS) |  | 38% | 58% | 84% |  | 
CATTTGGAGATCTGGC (sugars k4 d9 k3, PS) |  | 57% | 74% | 92% |  | 
GTTATGAAATTATTGG (sugars kkddddkekekkdddd, PS) |  |  |  |  | 86 | 
GGAATTATGGAATTGC (sugars k3 d4 k3 e1 d5, PS) |  |  |  |  | 65 | 
CGCAATGCTGACTTGG (sugars kkddddkekekddddd, PS) |  |  |  |  | 83 | 
ACAGCATTGAGTACAA (sugars k4 d9 k3, PS) |  | 44% | 78% | 90% |  | 
TTCTCATGGTACAGGA (sugars k2 d4 e4 k2 d4, PS) |  |  |  |  | 80 | 
AGTATTGCCAGCTAAG (sugars kkddddkekekkdddd, PS) |  |  |  |  | 34 | 
AATTCTATTAGAGGGC (sugars kkkddddkekekdddd, PS) |  |  |  |  | 41 | 
TGTTATATTTGATCCT (sugars kkkddddkekekdddd, PS) |  |  |  |  | 59 | 
TGTTCTAACTCTTGGG (sugars kkkddddkekeddddd, PS) |  |  |  |  | 88 | 
CACCATAGCACGAAGC (sugars k4 d9 k3, PS) |  | 23% | 53% | 72% |  | 
ATAATGGTAGGTCTAC (sugars k4 d9 k3, PS) |  | 42% | 78% | 90% |  | 
TGTTATATTTGATCCT (sugars k3 d4 k3 e1 d5, PS) |  |  |  |  | 89 | 
CACATCATTGGGTTAT (sugars kkddddekekeddddd, PS) |  |  |  |  | 81 | 
CACATCATTGGGTTAT (sugars kkdddddkekeddddd, PS) |  |  |  |  | 77 | 
TTATATTTGATCCTCA (sugars kkkddddkekekdddd, PS) |  |  |  |  | 92 | 
